Experimental data reported in patent US4298617A, “Symmetrical and asymmetrical sulfinyl-dicarbamates” (priority 1979, dated 1981).
Read-outs that look alike come from different tables or passages of the source.

Assays:
Swiss white mice = assay: in vivo
Procedure: (§1) Mammalian toxicity was determined against Swiss white mice. The test compound was applied orally using corn oil or propylene glycol as the carrier, depending upon solubility of the compound therein.

[1] = test system: house flies, Musca domestica; assay: Topical insecticidal activity against house flies (percent mortality 24 hours after application); assay type: in vivo; details: read-out: House flies LD50
Procedure: (§2) Representative compounds of the N,N'-sulfinyldicarbamate esters of the invention were tested for insecticidal activity against two insect species, house flies, Musca domestica, and mosquito larvae, Culex pipiens. Stock 1% concentrated solutions of each of the test compounds were made in acetone, and such solutions diluted with acetone to a concentration of 0.001-0.1%. House flies were treated topically on the notum by 1 μl of each of the diluted acetone solutions and percent mortality was counted 24 hours after application. Insects were held at a constant temperature of 60° F. Larvicidal activity was determined by applying 1 ml of the acetone solution in 100 ml of water containing 20 3rd instar mosquito larvae. Results are presented as LD50 in μg/g for house flies and LC50 in ppm for mosquito larvae.

in vivo = details: mouse, in vivo, po
Procedure: as §1

[2] = test system: mosquito larvae, Culex pipiens; assay: Larvicidal activity against mosquito larvae; assay type: in vivo; details: 3rd instar larvae, 1 ml acetone solution in 100 ml water, 20 larvae
Procedure: as §2

[3] = topical on the notum, 1 μl acetone solution, 24 hours, 60° F.

| Structure (SMILES) | LD50 (in vivo) [mg/kg] | LD50 ([1]; topical, 24 h) [mg/kg] | further results |
| --- | --- | --- | --- |
| CNC(=O)Oc1cccc2c1OC(C)(C)C2 [carbofuran, 2,3-dihydro-2,2-dimethyl-7-benzofuranyl methylcarbamate, reference compound] |  |  | Mice LD50 (Swiss white mice; mouse, in vivo, po): 2-8 |
| CCCOC(=O)N(C)[S+]([O-])N(C)C(=O)ON=C(C)SC (centres unmarked) [Example VI] | 160 |  | LD50 [1, 3]: 6.6 mg/kg |
| CNC(=O)Oc1ccccc1OC(C)C [2-isopropoxyphenyl methylcarbamate, reference compound] |  |  | Mice LD50 (Swiss white mice; oral, corn oil or propylene glycol carrier): 60 mg/kg |
| CCOC(=O)N(C)[S+]([O-])N(C)C(=O)Oc1cccc(C(C)C)c1 (centres unmarked) [3-isopropylphenyl N-[N'-(ethoxycarbonyl)-N'-(methylaminosulfinyl)]-N-methylcarbamate] | 50 to 100 | 75 |  |
| CCCOC(=O)N(C)[S+]([O-])N(C)C(=O)Oc1cccc2c1OC(C)(C)C2 (centres unmarked) [IX, 2,3-dihydro-2,2-dimethylbenzofuranyl-7 N-[N'-(n-propoxycarbonyl)-N'-(methylaminosulfinyl)]-N-methylcarbamate] | 100 | 9 |  |
| CC(C)Oc1ccccc1OC(=O)N(C)[S+]([O-])N(C)C(=O)Oc1ccccc1OC(C)C [Example II, N,N'-sulfinyldi-(2-isopropoxyphenyl methylcarbamate)] | 940 | 85 |  |
| CCCOC(=O)N(CC)[S+]([O-])N(C)C(=O)ON=C(C)SC (centres unmarked) [Example V] | 115 |  | LD50 [1, 3]: 7 mg/kg |
| CSC(C)=NOC(=O)N(C)[S+]([O-])N(C)C(=O)ON=C(C)SC [Example III] | 210 |  | LD50 [1, 3]: 40 mg/kg |
| CCCOC(=O)N(C)[S+]([O-])N(C)C(=O)Oc1ccccc1OC(C)C (centres unmarked) [XI, 2-isopropoxyphenyl N-[N'-(n-propoxycarbonyl)-N'-(methylaminosulfinyl)]-N-methylcarbamate] | 500 to 1000 | 20 | Culex LC50 [2]: 0.18 ppm |
| CCOC(=O)N(C)[S+]([O-])N(C)C(=O)Oc1cccc2c1OC(C)(C)C2 (centres unmarked) [VIII, 2,3-dihydro-2,2-dimethylbenzofuranyl-7 N-[N'-(ethoxycarbonyl)-N'-(methylaminosulfinyl)]-N-methylcarbamate] | 56 | 13 | Culex LC50 [2]: 0.04 ppm |
| COC(=O)N(C)[S+]([O-])N(C)C(=O)Oc1cccc(C(C)C)c1 (centres unmarked) [XII, 3-isopropylphenyl N-[N'-(methoxycarbonyl)-N'-(methylaminosulfinyl)]-N-methylcarbamate] | 70 | 80 |  |
| CN(C(=O)Oc1cccc2c1OC(C)(C)C2)[S+]([O-])N(C)C(=O)Oc1cccc2c1OC(C)(C)C2 [Example I, N,N'-sulfinyldi-(2,3-dimethyl-2,3-dihydrobenzofuranyl-7 methylcarbamate)] | 165 | 20 |  |
| COC(=O)N(C)[S+]([O-])N(C)C(=O)Oc1cccc2c1OC(C)(C)C2 (centres unmarked) [Example VII, 2,3-dihydro-2,2-dimethylbenzofuranyl-7 N-[N'-(methoxycarbonyl)-N'-(methylaminosulfinyl)]-N-methylcarbamate] | 62 | 9 |  |
| CCCCCCCOC(=O)N(C)[S+]([O-])N(C)C(=O)Oc1cccc2c1OC(C)(C)C2 (centres unmarked) [X, 2,3-dihydro-2,2-dimethylbenzofuranyl-7 N-[N'-(n-heptoxycarbonyl)-N'-(methylaminosulfinyl)]-N-methylcarbamate] | 150 | 13.5 | Culex LC50 [2]: 0.015 ppm |
| CNC(=O)ON=C(C)SC [S-methyl N-(methylcarbamoyloxy)thioacetimidate, reference compound] | 10 |  |  |
| CSC(C)(C)C=NOC(=O)N(C)[S+]([O-])N(C)C(=O)ON=CC(C)(C)SC [IV, N,N'-sulfinyldi[2-methyl-2-(methylthio)propionaldehyde O-(methylcarbamoyl)-oxime]] | 1.8 |  | LD50 [1, 3]: 6.5 mg/kg |
